The text below walks through data of patent publication US8084003B2, “Ozone detecting device” (Nippon Telegraph and Telephone Corporation, priority 2006, dated 2011).

Where two headings read alike, the source gives them in different places.

The nature of series [1]: Deposition of the ultraviolet absorber as powder on the surface of the detecting device. The format is physicochemical. To be noted: absorber solution in 50 ml acetone or water, device manufactured and dried.
For series [2] the following is noted: 25° C.
Series [3] can be described thus: Ultraviolet absorbing ability dissolved in a solvent (spectrum of transmitted light). The format is physicochemical. How it is done: For example, when equal amounts of 2-hydroxy-4-methoxybenzophenone-5-sulfonic acid trihydrate and 4-dodecyloxy-2-hydroxybenzophenone are added, the ultraviolet absorbing ability of 4-dodecyloxy-2-hydroxybenzophenone is 1.25 times that of 2-hydroxy-4-methoxybenzophenone-5-sulfonic acid trihydrate on the average in a wavelength region of 300 to 400 nm.
Although the addition amount of 2-hydroxy-4-methoxybenzophenone-5-sulfonic acid trihydrate is 0.8 g and that of 4-dodecyloxy-2-hydroxybenzophenone is 0.5 g, i.e., there is a difference between the addition amounts, it is impossible to explain why the large difference is produced between the changes in absorbance by ultraviolet radiation when they are applied to ozone detecting devices. Note that the ultraviolet absorbing ability of an ultraviolet absorber is proportional to the addition amount. When dissolved in a solvent, therefore, the absorbing ability of 0.8 g of 2-hydroxy-4-methoxybenzophenone-5-sulfonic acid trihydrate is about 1.3 times that of 0.5 g of 4-dodecyloxy-2-hydroxybenzophenone.

A short description of series [4]: Ultraviolet exposure test with Artificial Sunlight XC-100AF (no UV filter), reflected-light absorbance at about 618 nm. The format is physicochemical. To be noted: dye used instead of indigo carmine, with ultraviolet absorber. How it is done:
An ultraviolet exposure test (experiment) in which the ozone detecting devices A to G described above are irradiated with ultraviolet light is conducted. In this test, the influence of ultraviolet light was evaluated by using Artificial Sunlight XC-100AF available from SERIC with no UV filter attached. The incident angle of illuminating light to each of ozone detecting devices A to G was set at 20°, the distance from the lower end of the artificial sunlight to each of ozone detecting devices A to G was set at 110 cm, and each of ozone detecting devices A to G was set in a central portion where the intensity of the illuminating light is highest.
Each of ozone detecting devices A to G described above was irradiated with ultraviolet light minute by minute for 1 to 5 min, and the reflected light from the ozone detecting device was measured with a spectrophotometer whenever the device was irradiated. The influence of ultraviolet light was evaluated by using the change in absorbance at a wavelength of about 618 nm as an index.

For series [5] the following is noted: other water-soluble ultraviolet absorbers, temperature not given; cited from earlier work.

For `CC(C)(C)c1ccc(O)c(-n2nc3ccccc3n2)c1` [2-(2-hydroxy-5-t-butylphenyl)-2H-benzotriazole], the “deposition in the form of powder on the surface of the device” value (“deposition in the form of powder” for short) in series [1] is on record as “deposits in the form of powder”. The same measure, in the same setting: under `CCC(C)(C)c1cc(-n2nc3ccccc3n2)c(O)c(C(C)(C)CC)c1` [2-(3,5-di-t-pentyl-2-hydroxyphenyl)-2H-benzotriazole] stands “deposits in the form of powder”. As to `COc1cc(O)c(C(=O)c2ccccc2)cc1S(=O)(=O)[O-].[Na+]` [2-hydroxy-4-methoxybenzophenone-5-sodium sulfonate], in series [1], the “deposition in the form of powder” value is “none of these ultraviolet absorbers deposited in the form of powder”. Further, the water solubility result in series [2] was “more than 2.5 wt %”. With `COc1cc(O)c(C(=O)c2ccccc2)cc1S(=O)(=O)O.O.O.O` [2-hydroxy-4-methoxybenzophenone-5-sulfonic acid trihydrate], the “absorbing ability of 0.8 g relative to 0.5 g of 4-dodecyloxy-2-hydroxybenzophenone” value in series [3] (dissolved in a solvent, scaled by addition amount) was “about 1.3 times”. Moreover, in series [1], the “deposition in the form of powder” value was “none of these ultraviolet absorbers deposited in the form of powder”. Also, the water solubility in series [2] turned out to be 25 wt %. Regarding `CCCCCCCCCCCCOc1ccc(C(=O)c2ccccc2)c(O)c1` [4-dodecyloxy-2-hydroxybenzophenone, reference compound], the “ultraviolet absorbing ability relative to 2-hydroxy-4-methoxybenzophenone-5-sulfonic acid trihydrate” value in series [3] (equal amounts added, average in wavelength region 300 to 400 nm) worked out at 1.25 times. For the same molecule, the “deposition in the form of powder” value in series [1] is “deposits in the form of powder”. In the case of `O=S(=O)([O-])c1ccc(O)c(N=Nc2c(O)ccc3ccccc23)c1.[Na+]` [Acid Alizarin Violet N], in series [4], the “resistance to ultraviolet light with other dyes” value (“resistance to ultraviolet light” for short) is “possible to increase the resistance to ultraviolet light”. On to `O=C1c2ccccc2C(=O)c2c1ccc(O)c2O` [alizarin], for which the “resistance to ultraviolet light” value in series [4] is recorded as “possible to increase the resistance to ultraviolet light”. As for `O=C(/C=C/c1ccccc1)c1ccccc1` [chalcone], the “resistance to ultraviolet light” value in series [4] is recorded as “possible to increase the resistance to ultraviolet light”.

Regarding `Nc1ccc(C(=O)O)cc1` [p-aminobenzoic acid], the water solubility in series [5] is on record as 0.4 wt %. Consider `O=C(Oc1ccccc1)c1ccccc1O` [phenyl salicylate], for which the water solubility in series [5] is on record as 0.05 wt %.
